US20070086967A1, “Treatment of psoriasis with rosiglitazone” (priority 2003, published 2007)

Legend:
Assay type in all cases: in vivo, humans
[1] = test system: moderate to severe plaque psoriasis; assay: Phase II placebo-controlled clinical study, Lattice System Global Psoriasis Score (LS-GPS); conditions: for Improvement by 2 categories, number of patients / Improvement by 2 categories, percentage of patients / Improvement to clear/almost clear, number of patients / Improvement to clear/almost clear, percentage of patients / Improvement to clear/almost clear/mild, number of patients / Improvement to clear/almost clear/mild, percentage of patients: LS-GPS, 18 weeks
Excerpt: The Lattice System Global Psoriasis Score (LS-GPS) developed by Charles Ellis, M. D. is a physician's global assessment tool that provides an entire body assessment that combines total body surface area (BSA) involvement with average plaque qualities. The resulting LS-GPS is one of eight discrete values ranging from “Clear” to “Very Severe”.
According to the LS-GPS score the definitions are: Clear • 0% Body Surface Area (BSA) and no elevation, erythema or scale. Almost Clear: • 1-3% BSA, mild elevation, erythema or scale; or • 4-9% BSA, mild erythema or mild scale Mild: • 1-3% BSA, moderate or marked elevation, erythema or scale; or • 4-9% BSA, mild elevation or moderate erythema or moderate scale; or • 10-20% BSA, mild erythema or mild/moderate scale Mild to Moderate: • 4-9% BSA, moderate elevation or marked scale; or • 10-20% BSA, moderate erythema; or • 21-29% BSA, mild erythema or mild/moderate scale Moderate: • 4-9% BSA, marked elevation or marked erythema; or • 10-20% BSA, mild elevation; or • 30-50% BSA, mild erythema or mild scale Moderate to Severe: • 10-20% BSA, moderate elevation or marked scale; or • 21-29% mild elevation or moderate erythema; or • 51+% BSA, mild erythema or mild scale Severe: • 10-20% BSA, marked elevation or marked erythema; or • 21-29% BSA, moderate/marked elevation or marked erythema or marked scale; or • 30-50% BSA, mild elevation or moderate erythema or moderate scale Very Severe: • 30-50% BSA, moderate/marked elevation or marked erythema or marked scale; or • 51+% BSA, any elevation or moderate/marked erythema or moderate/marked scale.
(§1) A phase II, multi-center, randomized, double-blind, placebo-controlled study involving 186 subjects compared the safety and efficacy of three doses (2 mg, 4 mg, and 8 mg) of rosiglitazone maleate (RSG) to placebo for eighteen weeks with two weeks follow-up in the treatment of moderate to severe plaque psoriasis. This study was designed to provide an assessment of the risk to benefit profile of three dose levels of RSG in subjects with psoriasis. 186 patients were enrolled and 108 patients completed the study. All patients were in the moderate to very severe category, although of the patients starting the study only 11 were moderate and the rest were severe or very severe.
(§2) Efficacy measurements included the Lattice System Global Psoriasis Score (LS-GPS) and the Psoriasis Area and Severity Index (PASI).
“Observed” refers to data on patients who completed the trial. “LOCF” (last observation carried forward) includes data on patients who withdrew from the trial for some reason and includes their last observation in the data. The percentage is out of the total number of initial participants in the trial.

[2] = test system: moderate to severe plaque psoriasis; assay: Phase II placebo-controlled clinical study, Psoriasis Area and Severity Index (PASI)
Procedure: The Psoriasis Area Severity Index (PASI) score was developed by Fredeniksson and Petersson in 1978 ( Frederiksson T and Petersson U. Severe psoriasis-oral therapy with a new retinoid. Dermatologica. 1978;157:238-44). According to our preferred method of determining the PASI score,four main body areas are assessed: the head (h), the upper extremities (u) the trunk (t), and lower extremities (l) corresponding to 10; 20, 30 and 40% of the total body surface area, respectively. The buttocks are counted as part of the legs, the axilla and groin count as part of the trunk and the neck as part of the head. The area of psoriatic involvement of these four main areas (Ah, At, Au, Al) is given a numeric score for the percent involved by psoriasis: 1=1-9%; 2=10-29%; 3=30-49%; 4=50-69%; 5=70-89% and 6=90-100%. In order to evaluate the severity of the psoriatic lesions three target symptoms, erythema (E), thickness/indurabon (I), and desquamation/scaling (D) will be assessed according to a scale of 0-4, where 4 represents the severest possible involvement. In the case of i.e., erythema, 0=No symptoms; 1=slight erythema, 2=moderate erythema; 3=marked erythema, and 4=very marked erythema. The PASI score (0-72) is then calculated, from the following formula: […]
The PASI score varies in steps of 0.1 units from 0.0 to 72.0. Higher PASI scores indicate higher degrees of severity. The last mentioned score represents complete erythema of the severest possible degree, while 0.0 means no psoriatic lesions at all. Generally severe psoriasis is defined by a PASI score of 20 or more.
as §1, §2

subjects with psoriasis = assay: Phase II placebo-controlled clinical study, safety
Procedure: as §1

[3] = test system: moderate to severe plaque psoriasis; assay: Phase II placebo-controlled clinical study, overall efficacy, onset of effect and patient photographs
Procedure: FIGS. 3, 4, 5 and 6: photographs of the back of a patient receiving 2 mg rosiglitazone at baseline and after 12 weeks, 18 weeks and follow-up (week 20).
FIGS. 7, 8 and 9: photographs of the lower leg of a patient receiving 8 mg rosiglitazone at baseline and after 12 weeks and 18 weeks.
as §1, §2

[4] = Observed (completers), 2 mg oral daily
[5] = Observed (completers), 4 mg oral daily
[6] = Observed (completers), 8 mg oral daily
[7] = Week 12, 2 mg and 8 mg groups compared to placebo
[8] = 18 weeks of oral, daily treatment, 2, 4, 8 mg

In the case of `CN(CCOc1ccc(CC2SC(=O)NC2=O)cc1)c1ccccn1` (stereo not drawn) [RSG, 5-[4-[2-(N-methyl-N-(2-pyridyl)amino)ethoxy]benzyl]thiazolidine-2,4-dione], the “LS-GPS results (FIG. 1, percentage of completed patients clear, almost clear or mild)” value ([1]; 8 mg group at 18 weeks) is reported as “particularly good”, the “Improvement by 2 categories, number of patients” value ([1]; LOCF, 2 mg oral daily) is reported as 12 and the “Improvement by 2 categories, percentage of patients” value ([1]; LOCF, 2 mg oral daily) is reported as 24%. The “Improvement to clear/almost clear, number of patients” value ([1]; LOCF, 2 mg oral daily) was 2, the “Improvement to clear/almost clear, percentage of patients” value ([1]; LOCF, 2 mg oral daily) was 4% and the “Improvement to clear/almost clear/mild, number of patients” value ([1]; LOCF, 2 mg oral daily) was 5. For the same compound, the “Improvement to clear/almost clear/mild, percentage of patients” value ([1]; LOCF, 2 mg oral daily) was 10%, the “Improvement by 2 categories, number of patients” value ([1]; LOCF, 4 mg oral daily) was 6 and the “Improvement by 2 categories, percentage of patients” value ([1]; LOCF, 4 mg oral daily) was 14%. For the same compound, the “Improvement to clear/almost clear, number of patients” value ([1]; LOCF, 4 mg oral daily) was 1, the “Improvement to clear/almost clear, percentage of patients” value ([1]; LOCF, 4 mg oral daily) was 2% and the “Improvement to clear/almost clear/mild, number of patients” value ([1]; LOCF, 4 mg oral daily) was 4. The “Improvement to clear/almost clear/mild, percentage of patients” value ([1]; LOCF, 4 mg oral daily) was 9%, the “Improvement by 2 categories, number of patients” value ([1]; LOCF, 8 mg oral daily) was 11 and the “Improvement by 2 categories, percentage of patients” value ([1]; LOCF, 8 mg oral daily) was 25%. For the same compound, the “Improvement to clear/almost clear, number of patients” value ([1]; LOCF, 8 mg oral daily) was 3, the “Improvement to clear/almost clear, percentage of patients” value ([1]; LOCF, 8 mg oral daily) was 7% and the “Improvement to clear/almost clear/mild, number of patients” value ([1]; LOCF, 8 mg oral daily) was 11. For the same compound, the “Improvement to clear/almost clear/mild, percentage of patients” value ([1]; LOCF, 8 mg oral daily) was 25%, the “Improvement by 2 categories, number of patients” value [1, 4] was 11 and the “Improvement by 2 categories, percentage of patients” value [1, 4] was 28%. For the same compound, the “Improvement to clear/almost clear, number of patients” value [1, 4] was 2, the “Improvement to clear/almost clear, percentage of patients” value [1, 4] was 5% and the “Improvement to clear/almost clear/mild, number of patients” value [1, 4] was 5. For the same compound, the “Improvement to clear/almost clear/mild, percentage of patients” value [1, 4] was 13%, the “Improvement by 2 categories, number of patients” value [1, 5] was 4 and the “Improvement by 2 categories, percentage of patients” value [1, 5] was 20%. The “Improvement to clear/almost clear, number of patients” value [1, 5] was 1, the “Improvement to clear/almost clear, percentage of patients” value [1, 5] was 5% and the “Improvement to clear/almost clear/mild, number of patients” value [1, 5] was 2. The “Improvement to clear/almost clear/mild, percentage of patients” value [1, 5] was 10%, the “Improvement by 2 categories, number of patients” value [1, 6] was 10 and the “Improvement by 2 categories, percentage of patients” value [1, 6] was 37%. For the same compound, the “Improvement to clear/almost clear, number of patients” value [1, 6] was 3, the “Improvement to clear/almost clear, percentage of patients” value [1, 6] was 11% and the “Improvement to clear/almost clear/mild, number of patients” value [1, 6] was 10. The “Improvement to clear/almost clear/mild, percentage of patients” value [1, 6] was 37%, the LS-GPS summary [1, 7] was “improvements” and the “subjects who achieved Clear/Almost Clear in the LS-GPS (primary endpoint)” value ([1]; Week 12, in each of the RSG groups (2 mg, 4 mg, 8 mg), none in placebo) was “one”. The “distribution of the LS-GPS” value ([1]; Week 18, 2 mg group) was “statistically significant”, the “other LS-GPS endpoints” value ([1]; Week 18, 8 mg dose) was “comparable efficacy with the 2 mg dose” and the “odds for successful treatment (Clear/Almost Clear/Mild LS-GPS) relative to placebo group” value ([1]; Week 18, 8 mg group) was roughly 5 times. The “proportion of subjects who achieved Clear/Almost Clear/Mild, significance” value ([1]; Week 18, 8 mg group vs placebo) was “achieved statistical significance”, the “subjects who achieved an improvement of Clear/Almost Clear” value ([1]; Week 18, all RSG groups together, none on placebo) was “six” and the “PASI results (FIG. 2, change from baseline, LOCF)” value ([2]; 2 and 8 mg group at 12 weeks) was “particularly good”. The “mean percent change in PASI” value ([2]; Week 12, 2 mg and 8 mg group) was “statistically significant”, the “proportion of subjects who achieved a 50% improvement according the PASI” value [2, 7] was “improvements” and the “proportion of subjects who achieved a 75% improvement according the PASI” value [2, 7] was “improvements”. The “PASI mean percent change” value ([2]; Week 18, 2 mg group) was “statistically significant”, the “other PASI endpoints” value ([2]; Week 18, 8 mg dose) was “comparable efficacy with the 2 mg dose” and the “improvements in mean percent change in PASI total scores during follow-up period” value ([2]; two weeks follow-up after 18 weeks of treatment, all treatment groups) was “maintained”. The safety findings (subjects with psoriasis; [8]) was “no unexpected safety findings”, the safety profile (subjects with psoriasis; [8]) was “comparable across treatment groups” and the adverse events (subjects with psoriasis; all doses) was “comparable with placebo”. For the same compound, the tolerability (subjects with psoriasis; all doses) was “well tolerated”, the “efficacy results versus placebo” value ([3]; 4 mg group, high dropout rate (24/44)) was “did not separate appreciably from placebo” and the clinical effects ([3]; Week 12 and Week 18, 2 mg and 8 mg treatment groups) was “Clinically meaningful effects”. For the same compound, the “efficacy in photographs of a patient's back (FIGS. 3-6)” value ([3]; one patient on 2 mg, baseline, 12 weeks, 18 weeks, follow-up week 20) was “good efficacy”, the “efficacy in photographs of a patient's lower leg (FIGS. 7-9)” value ([3]; one patient on 8 mg, baseline, 12 weeks, 18 weeks) was “good efficacy” and the “onset of action according to most measures” value ([3]; oral, 2 to 8 mg/day) was “around 2 weeks”. The onset of activity ([3]; oral, 2 to 8 mg/day) was 6-8 weeks, the “time to noticeably beneficial effects” value ([3]; oral, 2 to 8 mg/day) was 12-18 weeks and the “time of peak effect (other endpoints)” value ([3]; study only 18 weeks, peak efficacy may not have been observed) was 18 weeks.
